{"source": "patent US6545045B1", "about": "“Prostaglandin E agonists for treatment of glaucoma” (Alcon Manufacturing, Ltd., priority 1998, dated 2003)", "key": {"EP4 receptors": {"target": "T1, EP4 receptors (Cricetulus griseus, UniProt A0A061ILF4)", "T1 construct": "Chinese hamster ovary cells (containing EP4 receptors); endogenous in cells; host or cells: Chinese hamster ovary (CHO) cells", "T1 sequence (A0A061ILF4 1-488)": "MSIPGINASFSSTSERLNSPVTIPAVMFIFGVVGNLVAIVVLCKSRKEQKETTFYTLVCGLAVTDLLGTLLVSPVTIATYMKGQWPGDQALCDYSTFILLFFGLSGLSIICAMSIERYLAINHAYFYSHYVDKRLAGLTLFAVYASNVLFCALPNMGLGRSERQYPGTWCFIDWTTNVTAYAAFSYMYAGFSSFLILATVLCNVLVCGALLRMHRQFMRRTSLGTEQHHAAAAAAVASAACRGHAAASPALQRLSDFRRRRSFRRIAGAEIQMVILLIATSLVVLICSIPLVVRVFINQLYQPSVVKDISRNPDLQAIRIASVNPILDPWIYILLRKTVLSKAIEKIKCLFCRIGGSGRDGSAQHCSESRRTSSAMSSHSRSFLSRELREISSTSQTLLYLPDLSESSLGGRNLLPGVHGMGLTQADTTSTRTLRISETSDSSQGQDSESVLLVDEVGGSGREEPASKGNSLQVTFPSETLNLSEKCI", "experiment": "cAMP production (radioimmunoassay) via EP4 receptors in Chinese hamster ovary cells", "format": "cell-based", "details": "stimulated 15-60 min at 23° C; for EC50: read-out: Potency (EC50, nM) at EP4 Receptors in Chinese Hamster Ovary Cells", "description": "(§1) Immortalized human non-pigmented ciliary epithelial cells (containing EP2 receptors) and Chinese hamster ovary cells (containing EP4 receptors, Milne et al. Human moncytes and cultured Chinese hamster ovary cells express EP4 receptors positively coupled to adenylate cyclase, Br. J. Pharmacology, 113 (supplement):8 (1994)) were stimulated with various prostaglandins for 15-60 min at 23° C. The cAMP produced by receptor activation was determined by a specific radioimmunoassay as previously described (Sharif et al., Pharmacological analysis of mast cell mediator and neurotransmitter receptors coupled to adenylate cyclase and phospholipase C on immunocytochemically-defined human conjunctival epithelial cells, J. Ocular Pharmacology & Therapeutics, 13, 321-336 (1997); Crider et al. Prostaglandin-stimulated adenylyl cyclase activity via a pharmacologically-defined EP2 receptor in human non-pigmented epithelial cells, J. Ocular Pharmacology & Therapeutics 14:293-304 (1998); Crider et al. Use of a semi-automated, robotic radioimmunoassay to measure cAMP generated by activation of DP-, EP2- and IP-prostaglandin receptors in human ocular and other cell-types, Prostaglandins, Leukotrienes & Fatty Acids 59:77-82 (1998), Milne et al. Human moncytes and cultured Chinese hamster ovary cells express EP4 receptors positively coupled to adenylate cyclase, Br. J. Pharmacology, 113 (supplement):8, (1994))."}, "EP2 receptors": {"target": "T2, EP2 receptors (Homo sapiens, UniProt P43116)", "T2 construct": "Immortalized human non-pigmented ciliary epithelial cells (containing EP2 receptors); endogenous in cells; host or cells: immortalized human non-pigmented ciliary epithelial cells", "T2 sequence (P43116 whole entry)": "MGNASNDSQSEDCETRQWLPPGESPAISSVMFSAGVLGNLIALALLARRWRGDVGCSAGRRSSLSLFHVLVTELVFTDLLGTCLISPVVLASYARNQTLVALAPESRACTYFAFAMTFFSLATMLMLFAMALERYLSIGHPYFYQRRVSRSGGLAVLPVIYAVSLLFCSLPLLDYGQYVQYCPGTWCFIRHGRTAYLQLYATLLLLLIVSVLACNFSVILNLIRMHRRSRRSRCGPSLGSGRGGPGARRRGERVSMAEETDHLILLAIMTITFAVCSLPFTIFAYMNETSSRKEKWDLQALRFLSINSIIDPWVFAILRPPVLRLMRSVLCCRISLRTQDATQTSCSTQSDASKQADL", "experiment": "cAMP production (radioimmunoassay) via EP2 receptors in immortalized human non-pigmented ciliary epithelial cells", "format": "cell-based", "description": "as §1"}, "[1]": {"details": "cAMP production, stimulated 15-60 min at 23° C"}}, "data": [{"smiles": "O=C(O)CCC/C=C\\C[C@@H]1[C@@H](/C=C/[C@@H](O)COc2cccc(C(F)(F)F)c2)[C@H](O)C[C@@H]1O", "note": "(racemic) [Fluprostenol]", "values": [{"measurement": "Potency (EC50, nM) at EP4 Receptors in Chinese Hamster Ovary Cells", "setting": "EP4 receptors", "value": "Inactive"}, {"measurement": "Potency (EC50, nM) at EP4 Receptors in Chinese Hamster Ovary Cells", "setting": "EP4 receptors; listed as fluprostenol", "value": "inactive"}, {"measurement": "Potency (EC50, nM) at EP2 Receptors in Immortalized Human Non-pigmented Ciliary Epithelial Cells", "setting": "EP2 receptors; [1]", "value": "Inactive"}, {"measurement": "Potency (EC50, nM) at EP2 Receptors in Immortalized Human Non-pigmented Ciliary Epithelial Cells", "setting": "EP2 receptors; cAMP production, stimulated 15-60 min at 23° C, listed as fluprostenol", "value": "inactive"}]}, {"smiles": "CCCCC(C)(C)[C@H](O)/C=C/[C@H]1CCC(=O)[C@@H]1C/C=C\\CCCC(=O)O", "note": "[11-deoxy-16,16-dimethyl-PGE2, 11-deoxy-16,16-dimethyl PGE2]", "values": [{"measurement": "efficacy at EP4 Receptors in Chinese Hamster Ovary Cells", "setting": "EP4 receptors", "value": 99, "unit": "%"}]}, {"smiles": "CCCCC[C@H](O)/C=C/[C@H]1CCC(=O)[C@@H]1CCCCCCC(=O)O", "note": "[11-deoxy-PGE1]", "values": [{"measurement": "efficacy at EP4 Receptors in Chinese Hamster Ovary Cells", "setting": "EP4 receptors", "value": 86, "unit": "%"}, {"measurement": "EC50", "setting": "EP4 receptors", "value": 38, "unit": "nM"}, {"measurement": "EC50", "setting": "EP2 receptors; cAMP production, stimulated 15-60 min at 23° C, read-out: Potency (EC50, nM) at EP2 Receptors in Immortalized Human Non-pigmented Ciliary Epithelial Cells", "value": 500, "unit": "nM"}]}, {"smiles": "CCCCC(C)(C)[C@H](O)/C=C/[C@H]1[C@H](O)CC(=O)[C@@H]1C/C=C\\CCCC(=O)O", "note": "[16,16-dimethyl-PGE2, 16,16-dimethyl PGE2]", "values": [{"measurement": "efficacy at EP4 Receptors in Chinese Hamster Ovary Cells", "setting": "EP4 receptors", "value": 100, "unit": "%"}]}, {"smiles": "CCCC1([C@H](O)C/C=C/[C@H]2[C@H](O)CC(=O)[C@@H]2CCCCCCC(=O)OC)CCC1", "note": "[Butaprost]", "values": [{"measurement": "selectivity between EP2 and EP4 receptors (relative agonist potency)", "setting": "EP2 receptors; EP2 versus EP4, from EC50 values of Table 1", "value": "more EP2-selective"}]}, {"smiles": "O=C(O)CCC/C=C\\CC1C(O)CC(O)C1/C=C/C(O)COc1cccc(Cl)c1", "note": "(stereo not shown) [Cloprostenol]", "values": [{"measurement": "Potency (EC50, nM) at EP4 Receptors in Chinese Hamster Ovary Cells", "setting": "EP4 receptors", "value": "Inactive"}, {"measurement": "Potency (EC50, nM) at EP4 Receptors in Chinese Hamster Ovary Cells", "setting": "EP4 receptors; listed as cloprostenol", "value": "inactive"}, {"measurement": "Potency (EC50, nM) at EP2 Receptors in Immortalized Human Non-pigmented Ciliary Epithelial Cells", "setting": "EP2 receptors; [1]", "value": "Inactive"}, {"measurement": "Potency (EC50, nM) at EP2 Receptors in Immortalized Human Non-pigmented Ciliary Epithelial Cells", "setting": "EP2 receptors; cAMP production, stimulated 15-60 min at 23° C, listed as cloprostenol", "value": "inactive"}]}, {"smiles": "CCCCC[C@H](O)/C=C/[C@H]1[C@H](O)CC(=O)[C@@H]1C/C=C\\CCCC(=O)O", "note": "[PGE2]", "values": [{"measurement": "efficacy at EP4 Receptors in Chinese Hamster Ovary Cells", "setting": "EP4 receptors", "value": 100, "unit": "%"}, {"measurement": "EC50", "setting": "EP4 receptors", "value": 35, "unit": "nM"}]}]}
